Assay results: PubChem BioAssay AID179 (DTP/NCI, 2004)
“And” between values parts separate entries of the source, which are not always exact repeats. Equal values may be shown once. The source made the active and inactive calls.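 Rule for the calls: active = compounds giving half or more protection of infected cells from virus-caused growth loss, again on retest; inactive = the rest.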 Where a SMILES comes first, the peptide text is derived from it.

Test system: CEM cells HIV-1 protection, formazan growth assay
Assay: NCI AIDS Antiviral Assay
Conditions: for IC50: measured here: growth of uninfected CEM cells
Summary of the method: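 Human CEM cells, uninfected and HIV-1-infected, received five drug concentrations, and growth was read by soluble formazan assay. Compounds giving at least 50% protection were retested; reproducible 100% protection defined confirmed active.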

Compound | EC50 | IC50 | outcome
CC(CO)(CO)N1C(=O)c2cccc3cc([N+](=O)[O-])cc(c23)C1=O | > 200 µM | > 200 µM | –
O=[As](O)(O)c1ccc(Cl)cc1Cl | > 200 µM | 95.5 µM | –
O=C1C2C(C(=O)N1c1ccccc1)C(c1ccccc1)N(c1ccccc1)C2c1ccccc1 (stereo unspecified) | > 22.4 µM | 15.8 µM | –
COc1cc2cc(C(=O)N3CC(CCl)c4c3cc(NC(=O)C(C)Nc3c([N+](=O)[O-])cc(C(=O)NCCN(C)C)cc3[N+](=O)[O-])c3ccccc43)[nH]c2c(OC)c1OC (stereo unspecified) | > 0.1 µM | 0.0575 µM | –
OC1c2c(ccc3c2CCC3)CC12Cc1ccccc1C2 (stereo unspecified) | > 200 µM | 38 µM | –
O=[N+]([O-])c1nccn1CCC[n+]1ccc2ccccc2c1 | > 100 µM | 74.1 µM | –
O=C(NCCCNC(=O)c1ccc2c(O)c(O)ccc2c1)c1ccc2c(O)c(O)ccc2c1 | > 151 µM | 15.5 µM | –
O=C1CC2CCCC(=O)C23CCC[C@H]13 (stereo partly specified) | > 324 µM | > 324 µM | –
COc1ccc2nc3cc(Cl)ccc3c(Sc3ccc(NC(C)=O)cc3)c2c1 | > 12.6 µM | > 12.6 µM | –
COc1ccc(N2C(=O)C(N3C(=O)C=CC3=O)C2C=O)cc1 (stereo unspecified) | > 166 µM | > 166 µM | –
S=c1n(-c2ccc(Cl)cc2)c2nc3ccccc3nc(/c2=N\Nc2cc(Cl)ccc2Cl)n1-c1ccc(Br)cc1 | > 75.9 µM | 19.5 µM | –
N#C/C(=C1\SC(N=Nc2ccc(Cl)cc2)C(=O)N1c1ccccc1)c1nc2ccccc2[nH]1 (stereo unspecified) | > 3.8 µM | > 3.8 µM | –
Brc1ccc(C2=CSC3=NCCN23)cc1 | > 200 µM | 23.4 µM and 107 µM | –
CCCCCC1=CC(=O)C=C(OC)C12C(=O)Oc1cc(O)c(C(=O)O)c(CCCCC)c12 (stereo unspecified) | > 562 µM | 77.6 µM | –
NC(=O)C(N)CC12CC3CC(CC(C3)C1)C2 (stereo unspecified) | > 200 µM | 39.8 µM | –
CC1=C(C(=O)NC2CCCCC2)CC(C(=O)NC2CCCCC2)=C(C)N1 | > 200 µM | 72.4 µM | –
CCCCCCCCCc1nn2c(Cc3ccccc3)nnc2s1 | > 200 µM | 36.3 µM | –
CC(C)OP(=O)(OC(C)C)C(N(C)C)P(=O)(OC(C)C)OC(C)C.[Cl][Sn]([Cl])([Cl])[c]1ccccc1 | – | – | inactive
CCC(N)CS(=O)(=O)O (stereo unspecified) | > 200 µM | > 200 µM | –
COc1ccc(C(=O)C(c2ccc(OC)cc2)C2(O)C(=O)Nc3c(Cl)cc(Cl)cc32)cc1 (stereo unspecified) | > 39.8 µM | > 39.8 µM | –
CCN(CC)C(=S)S | > 1450 µM | 39.8 µM | –

Compound | EC50 | IC50 | outcome
Cc1ccc(S(=O)(=O)Nn2c(O)c(C#N)c(-c3ccccc3)c(C#N)c2=O)cc1 | > 200 µM | > 200 µM | –
COC(=O)CCC(NC(=O)OC(C)(C)C)C(=O)NC(Cc1ccc(NC(=O)CCCC(C)=O)cc1)C(=O)NC(CCC(=O)OC)C(=O)OC (stereo unspecified) | > 100 µM | > 100 µM | –
Clc1ccccc1CSc1cnnc2ccccc12 | > 93.3 µM | 67.6 µM | –
O=C(/C=C/c1ccccc1O)c1cccc2ccccc12 | 93.3 µM | 95.5 µM | –
O=C(CC(C(=O)c1cccs1)c1ccsc1)c1ccc(Cl)cc1 (stereo unspecified) | > 200 µM | 52.5 µM | –
CN(C)CCCNC(=O)CCNC(=O)c1cc(NC(=O)c2cc(NC(=O)c3cc(NC(=O)c4nc(NC(=O)CCCNC(=O)c5cc(NC(=O)c6cc(NC(=O)c7cc(NC(=O)c8nccn8C)cn7C)cn6C)cn5C)cn4C)cn3C)cn2C)cn1C | > 141 µM | 24.5 µM | –
CCOC(=O)/C(=C/c1cccc(Cl)c1)N(CC)CC | > 91.2 µM | > 91.2 µM | –
CN1N(c2ccccc2)C(=O)C2=NC=C(C#N)C(=N)C21C (stereo unspecified) | > 200 µM | 64.6 µM | –
CCOC(=O)C1(C(F)(F)F)N=C(CC)OC(N2CCOCC2)=N1 (stereo unspecified) | > 200 µM | > 200 µM | –
CC1(C)OCC2OC(n3cnc4c(N)nc(Cl)nc43)C(OS(C)(=O)=O)C2O1 (stereo unspecified) | > 11.2 µM | 7.59 µM | –
CC1Cn2c(nnc2-c2ccccc2O)S1 (stereo unspecified) | – | – | inactive
O=C1OCc2cnccc21 | > 1860 µM | > 1860 µM | –
O=C(O)C12CCC(CC1=O)C2 (stereo unspecified) | > 200 µM | > 200 µM | –
Nc1cnn(C2OC(CO)C(F)C2F)c(=O)n1 (stereo unspecified) | > 363 µM | > 363 µM | –
Cc1nnc2n1N=C(CC(=O)c1ccc(O)cc1O)CN2N | > 832 µM | > 832 µM | –
CC1=C(C(=O)NNC(=O)c2ccccc2O)CC(C(=O)NNC(=O)c2ccccc2O)=C(C)N1 | > 200 µM | 1.66 µM | –
COC12c3ccccc3-c3ccccc3C1[C@H]1C(=O)OC(=O)[C@H]12 (stereo partly specified) | > 162 µM | > 162 µM | –
COc1ccc2c(c1)c(=O)c1c(NCCN(C)C)ccc3c(=O)n(CCN(C)C)c(=O)n2c31 | 0.0204 µM | 0.0324 µM | –
O=C1Nc2ccc(Cl)cc2C(c2ccccc2Cl)=NC1O (stereo unspecified) | – | – | inactive
O=C(N/N=C1\CCc2ccccc21)N/N=C1\CCc2ccccc21 | > 200 µM | > 200 µM | –
CC1C(=O)C(C)C(c2ccccc2)N(N=O)C1c1ccccc1 (stereo unspecified) | > 42.7 µM | > 42.7 µM | –

Compound | EC50 | IC50 | outcome
O=C([O-])c1ccc([I+]c2ccccc2)cc1 | – | – | inactive
N#Cc1nc(C(CO)N(Cc2ccccc2)C(=O)O)oc1N (stereo unspecified) | > 200 µM | > 200 µM | –
C[PH+](C)CC[PH+](CC[PH+](c1ccccc1)c1ccccc1)c1ccccc1.[C-]#[O+].[C-]#[O+].[C-]#[O+].[Mo] (stereo unspecified) | – | – | inactive
COc1cccc(CC2NCCc3c2[nH]c2ccccc32)c1 (stereo unspecified) | > 251 µM | 46.8 µM | –
O=C(c1ccccc1)C1N(c2ccccc2)CCN1c1ccccc1 | > 200 µM | 21.9 µM | –
O=c1oc2ccc(Br)cc2cc1-n1nnc2cc([N+](=O)[O-])ccc21 | > 17.4 µM | > 17.4 µM | –
COC(=O)c1ccc(CO/N=C(\c2ccccc2)c2ccccn2)cc1 | > 162 µM | 57.5 µM | –
CN(NC(=O)Nc1cccc2ccccc12)c1ccccc1 | > 24.5 µM | > 24.5 µM | –
CSc1nc(=S)[nH]c2c1c(C)nn2-c1ccccc1 | > 200 µM | 28.8 µM | –
COc1cc2ccc3c(c2oc1=O)[C@@H](OC(=O)C12CCC(C)(C(=O)O1)C2(C)C)[C@@H](OC(=O)C12CCC(C)(C(=O)O1)C2(C)C)C(C)(C)O3 (stereo partly specified) | 0.851 µM | 19.1 µM | –
C=C1C(=O)OC2C=CCCCC12 (stereo unspecified) | > 53.7 µM | 4.68 µM | –
COc1cc(NC(=O)c2ccc(NC(=O)c3ccc(N)cc3)cc2)c(OC)cc1N=Nc1ccc(N=Nc2ccc3cc(S(=O)(=O)O)cc(S(=O)(=O)O)c3c2)c(C)c1 | 19.5 µM | > 100 µM | –
Cc1cc(S(=O)(=O)Nc2nc(N)n(C)n2)c(S)cc1Cl | > 200 µM | > 200 µM | –
CCOC(=O)/C(=C/c1cccc2ccccc12)P(=O)(OCC)OCC | > 257 µM | 17 µM | –
O=C1CC(=O)N(CCc2ccncc2)C(=O)N1CCc1ccncc1 | – | > 200 µM | inactive
Nc1nccc2c1ncn2C1C=C(CO)C(O)C1O (stereo unspecified) | > 832 µM | 0.324 µM | –
Nc1nc2c(ncn2C2C=CC(CO)CC2)c(=O)[nH]1 (stereo unspecified) | > 200 µM | > 200 µM | –
CCCCCCCCCCCC(=O)OCCOCCOCCOCCOCCOCc1ccccc1 | – | – | inactive
OC(CCN1CCOCC1)c1ccc(Sc2ccccc2)cc1 (stereo unspecified) | > 200 µM | 36.3 µM | –
Cc1[nH]n(C2=NCCN2)c(=O)c1Cc1ccccc1 | > 200 µM | > 200 µM | –
NC(=Nc1ccccc1)N(c1ccccc1)c1nc(=S)ss1 | > 200 µM | 83.2 µM | –

Compound | EC50 | IC50 | outcome
Clc1cc2ncn(C3CCCO3)c2cc1Cl (stereo unspecified) | > 200 µM | 61.7 µM | –
OC1c2ccccc2C(O)c2c1ccc1c2CN(Cc2ccccc2)CC1 (stereo unspecified) | > 72.4 µM | 12.6 µM | –
O=[N+]([O-])C[C@@]12O[C@]3(O)C4C5CC(C6C5C3C61)C42 (stereo partly specified) | > 200 µM | > 200 µM | –
COc1ccc(C(=O)C(c2ccc(OC)cc2)C2(O)C(=O)Nc3c2ccc(Cl)c3C)cc1 (stereo unspecified) | > 11.5 µM | > 11.5 µM | –
O=C1Nc2ccccc2Oc2ccccc21 | 51.3 µM | > 200 µM | –
CC(NC(=O)CNC(=O)C(N)CO)C(=O)NC(CCC(=O)O)C(=O)NC(CCC(=O)O)C(=O)NC(CO)C(=O)NC(CCCCN)C(=O)NC(CCC(=O)O)C(=O)NC(CCC(N)=O)C(=O)NC(CO)C(=O)N1CCCC1C(=O)NC(CC(N)=O)C(=O)NC(C)C(=O)NC(Cc1cnc[nH]1)C(=O)NC(CO)C(=O)O (stereo unspecified) (H-SGAEESKEQSPNAHS-OH; configuration not given here) | > 100 µM | > 100 µM | –
N#Cc1ccc(OCc2nc3cc(C(F)(F)F)ccc3nc2-c2ccccc2)cc1 | > 200 µM | 30.2 µM | –
C[N+]1(CCO)C2CCC1CC(O)C2 (stereo unspecified) | > 200 µM | > 200 µM | –
O=C1CCC(N2C(=O)C3CCCCC3C2=O)C(=O)N1 (stereo unspecified) | > 200 µM | > 200 µM | –
CCOC(=O)C1=C(C)CC2C(=O)OC(=O)C2C1(C)C (stereo unspecified) | – | – | inactive
CC1(C)CC(=O)c2c(nc3ccc4ccccc4c3c2-c2ccc(NC(=O)CCCC(=O)Nc3ccc(-c4c5c(nc6ccc7ccccc7c46)CC(C)(C)CC5=O)cc3)cc2)C1 | > 100 µM | > 100 µM | –
O=C(/C=C/c1ccsc1)c1ccsc1 | > 200 µM | 3.39 µM | –
N#Cc1ccc(/C=N\N2C(=O)c3ccccc3C2=O)cc1 | > 26.3 µM | > 26.3 µM | –
CC(O)C1OC(n2cnc3c(=O)[nH]cnc32)C(O)C1O (stereo unspecified) | > 891 µM | > 891 µM | –
COc1ccc(C2SCC(=O)N2c2ccc(-c3ccc(-n4c(-c5ccccc5)nc5ccccc5c4=O)cc3)cc2)cc1 (stereo unspecified) | > 200 µM | 33.9 µM | –
CCC(=O)NC(Nc1cccc(F)c1)(C(F)(F)F)C(F)(F)F | > 200 µM | > 200 µM | –
O=C(N/N=C/c1ccc(O)c(S(=O)(=O)O)c1)C(=O)N/N=C/c1ccc(O)c(S(=O)(=O)O)c1 | > 100 µM | > 100 µM | –
CC(Cc1ccccc1)NC1=NCCO1 (stereo unspecified) | > 200 µM | 145 µM | –
CC(=O)Nc1nc(Cl)cc(NCC2(CO)CCC2)n1 | > 200 µM | > 200 µM | –
CCN(CC)CC(=O)Nc1ccc(CO)cc1 | > 200 µM | > 200 µM | –
O=C(O)c1cc(O)cc(O)c1N=Nc1ccc(CCc2ccc(N=Nc3c(O)cc(O)cc3C(=O)O)cc2S(=O)(=O)O)c(S(=O)(=O)O)c1 | 2.75 µM | 75.9 µM | –
